{"source": "patent US20040219175A1", "about": "“Thermogelling emulsions for sustained release of bioactive substances” (Industrial Technology Research Institute, priority 2002, published 2004)", "system": "hepatitis B virus", "assay": "Anti-viral effect on hepatitis B virus in SCID mice injected with patient serum, plasma HBsAg by ELISA", "type": "in vivo", "description": "The serum of the patient infected with hepatitis B virus was collected and injected into the SCID mice. Interferon-alpha, Interferon-alpha-containing emulsions and untreated groups of mice were divided to evaluate antiviral bioactivity of inteferon. Different formulations were administered at the interferon-alpha dose of 1000 units/g body weight of mice. Three days later, blood was collected and the concentrations of hepatitis B virus surface antigen (HBsAg) in plasma were determined by ELISA method.", "data": [{"substance": "Interferon-alpha", "values": [{"measurement": "anti-viral effect compared to the untreated control", "setting": "p<0.05", "result": "statistically significant anti-viral effect"}, {"measurement": "relative HBsAg ratio to the untreated control", "setting": "plasma, three days after 1000 units/g body weight, untreated defined as 1.0", "result": "0.29±0.4"}]}]}
